This note sets out measurements from patent US10966962B2, “Method for treating neurodegenerative diseases” (THE BOARD OF TRUSTEES OF THE LELAND STANFORD JUNIOR …, priority 2014, dated 2021).

In assay [1] the test system is ALS transgenic mice. As to the kind of experiment: Survival of ALS transgenic animals. Type of assay: in vivo. As to the method: ALS transgenic mice were orally treated 3 times a week with 0.5% methylcellulose or ZLN005 (Sigma) at 25 mg/kg in 0.5% methylcellulose, starting at 5, 10 and 15 weeks of age.
Survival of ALS-Ctrl (n=18) and ALS-ZLN mice (n=8) were monitored until all animals succumbed. […] Log-rank test was used for statistical analysis.

Assay [2] concerns microglia. As to the kind of experiment: Microglia metabolic phenotype in 5XFAD AD transgenic animals (MitotrackerGreen, 2-NBDG). In kind it is in vivo, mice. Particulars: 25 mg/kg orally 3 times a week for 4 weeks, 7 weeks of age. Here is the method: AD transgenic animals were orally treated 3 times a week for 4 weeks with 0.5% methylcellulose or ZLN005 (Sigma) at 25 mg/kg in 0.5% methylcellulose, starting at 3 weeks of age. For studies of microglia, 5[…]=10) and 5XFAD-Ctrl (n=8) animals and WT animals (n=11) were sacrificed at 7 weeks of age. PBS-perfused brain tissues of sacrificed animals were digested with Collagenase IV and processed for flow cytometry. Brain microglia were phenotyped with 2-NBDG and MitotrackerGreen (Invitrogen) for flow cytometric acquisition (LSRII, BD) and analysis (FlowJo). The results are summarized in FIG. 13; Y-axis represents % of microglia that highly expressed MitotrackerGreen (A) and had taken up 2-NBDG (B). Mitochondrial respiration and glycolysis are two key energy generating pathways in living cells. In immune cells like microglia, inflammatory transformation is associated with upregulation of glucose utilization and depression of mitochondrial biogenesis and function. […] ANOVA was used for statistical analyses.

For assay [3], the system named is DLB transgenic animals. As to the kind of experiment: Wheel-running test in DLB transgenic animals (SNCA*A53T). As to conditions: 25 mg/kg orally 3 times a week for 12 weeks. Type of assay: in vivo, mice. Here is the method:
[…] transgenic mice, an animal model in which the mutated form of human alpha synuclein is overexpressed, were generated to study pathological mechanisms in PD and DLB (Lee et al, Proc Natl Acad Sci USA. 2002, 13:8968-8970). […] DLB transgenic animals were purchased from Jackson Laboratories and were orally treated 3 times a week with 0.5% methylcellulose (Ctrl) or ZLN005 (ZLN) at 25 mg/kg in vehicle, starting at 8 weeks of age for 12 weeks. Subsequently, at 20 weeks of age, these animals were subjected to 1.5 weeks of training on a treadmill at a constant speed 10 rpm and then 1.5 weeks of training at an accelerating speed from 5-15 rpm, similar to those described in Example 8. After the training period at 21.5 and 23 weeks of age, animals were tested for motor performance at a constant speed and at an accelerating speed, respectively. DLB-ZLN mice (n=11) show an increase in latency to fall in comparison to DLB-Ctrl mice (n=9) at a constant speed of 10 rpm (271.5 seconds vs. 252.8 seconds). […] Thus, motor dysfunction of DLB mice was alleviated by ZLN005 treatment. Unpaired t-tests were used for statistical analyses.

For assay [4], the system named is microglia. As to the kind of experiment: Microglial metabolic phenotyping in MPTP-treated animals (Slc2a1 flow cytometry, ex vivo lactic acid production). More on the design: species or system mice. Particulars: 3 oral doses. The source says:
For measuring microglial expression of glucose transporter Slc2a1, MPTP-ZLN (n=10), MPTP-Ctrl (n=14), and Veh animals (n=14) were sacrificed. Brain microglia were phenotyped with antibody directed against glucose transporter Slc2a1 (RnD) for flow cytometric acquisition (LSRII, BD) and analysis (FlowJo). For measuring microglial glycolysis, MPTP-ZLN (n=8), MPTP-Ctrl (n=6), and Veh animals (n=6) were sacrificed. Microglia were sorted by flow cytometry and subjected to lactic acid production assays ex vivo (Cayman Chem) for glycolysis measurement. Y-axis represents Slc2a1 expression in median fluorescence units (MFI, A) and lactic acid production in micromolar units ([…], B). […] ANOVA was used for statistical analyses.

In assay [5] the test system is dopaminergic neurons in the substantia nigra. As to the kind of experiment: Immunohistochemical analysis of dopaminergic neurons in MPTP-treated animals. Type of assay: in vivo, mice. As to conditions: 25 mg/kg orally once a day for 7 days, Day 8. As to the method: For protein expression studies, animals were sacrificed on Day 8, 24 hours after the 7th oral dosage of ZLN005, and paraformaldehyde-perfused brain tissues were processed for immunohistochemical analysis of dopaminergic neurons in the substantia nigra. The brown staining represents tyrosine hydroxylase expression in dopaminergic neurons of the substantia nigra.

The subject of assay [6] is CD115+CD11b+blood monocytes. As to the kind of experiment: Systemic inflammation in ALS transgenic animals (blood monocytes, serum TNF-α ELISA). Particulars: 25 mg/kg orally 3 times a week for 8 weeks. Type of assay: in vivo, mice. As to the method: ALS transgenic animals were orally treated 3 times a week for 8 weeks with 0.5% methylcellulose or ZLN005 (Sigma) at 25 mg/kg in 0.5% methylcellulose, starting at 5 weeks of age. For measuring the frequency of CD115+CD11b+blood monocytes, ALS-Ctrl transgenic animals (n=10), ALS-ZLN (n=10), and WT animal (n=10) were sacrificed at 13 weeks of age. The Y-axis in FIGS. 21A and 21B represents % of total monocytes and % of Ly6C+ inflammatory monocytes among circulating immune cells.

For assay [7], the system named is microglia. As to the kind of experiment: Microglia IL1 and TNFα in 5XFAD AD transgenic animals. Type of assay: in vivo, mice. Particulars: 25 mg/kg orally 3 times a week for 4 weeks, 7 weeks of age. The source says: 5XFAD transgenic mice, which are model of familial AD, were purchased from Jackson Laboratories (Oakley et al J Neurosci. 26:10129-40, 2006). These animals overexpress both mutant human APP(695) with the Swedish (K670N, M671L), Florida (I716V), and London (V7171) Familial Alzheimer's Disease (FAD) mutations and human PS1 harboring two FAD mutations, M146L and L286V. These transgenic mice rapidly recapitulate major features of amyloid pathology in AD by 8-10 weeks of age. Microglia abnormalities and neuroinflammation are also pronounced within this time window. Subsequently, neurodegeneration and behavioral dysfunction that mimic cognitive and psychiatric symptoms of human AD begin and are pronounced by 4-5 months of age. AD transgenic animals were orally treated 3 times a week for 4 weeks with 0.5% methylcellulose or ZLN005 (Sigma) at 25 mg/kg in 0.5% methylcellulose, starting at 3 weeks of age. For studies of microglia, 5[…]=10), 5XFAD-Ctrl (n=8) and WT (n=11) animals were sacrificed at 7 weeks of age. PBS-perfused brain tissues of sacrificed animals were digested with Collagenase IV and processed for flow cytometry. Brain microglia were phenotyped with antibodies directed against mouse IL1 and TNFα (Biolegend) for flow cytometric acquisition (LSRII, BD) and analysis (FlowJo). The results are summarized in FIG. 12; Y-axis represents % of microglia that express IL1 (A) and TNFα (B). […]

As to `CC(C)(C)c1ccc(-c2nc3ccccc3[nH]2)cc1` [ZLN005, 2-(4-tert-butylphenyl)-1H-benzimidazole], in assay [1] (ALS transgenic mice), the “onset of hind limb paralysis” value was “delayed”. In assay [1] (ALS transgenic, 25 mg/kg orally 3 times a week starting at 5 or 10 weeks of age, p <0.05 vs ALS-Ctrl), this molecule showed a mean survival of 131 to 132 days. In assay [2], the “glucose uptake in microglia (2-NBDG)” value is reported as “decreased” and the “mitochondrial mass in microglia (Mitotracker Green)” value is “enhanced”. The molecule further came in with a latency to fall in assay [3] (accelerating speed 5-15 rpm, p <0.05 vs Ctrl) of 194.0 s. In assay [3] (constant speed 10 rpm, difference to Ctrl not statistically significant), this molecule gave a latency to fall of 271.5 s. Further, the “lactic acid production in microglia” value in assay [4] (Day 4, ex vivo, vs MPTP-Ctrl) is “decreased”. Moreover, in assay [4] (Day 4, vs MPTP-Ctrl), the “glucose transporter Slc2a1 expression in microglia” value is “decreased”. The “depletion of dopaminergic neurons of the substantia nigra (tyrosine hydroxylase staining)” value in assay [5] is reported as “reversed”. Besides, in assay [6] (13 weeks of age), the “% of Ly6C+ inflammatory monocytes among circulating immune cells” value is reported as “decreased” and the “% of total monocytes among circulating immune cells” value is “decreased”. Moreover, in assay [6] (ELISA), the “serum levels of TNF-α” value is “significantly suppressed”. Moreover, in assay [7], the “IL1 production in microglia” value is “decreased” and the “TNFα production in microglia” value is “decreased”.
